Where two headings read alike, the source gives them in different places. Each block holds one compound with its values, some of them ahead of it.
How the values were obtained:
[1] = test system: HIV-1 (HIV-1 RF, HIV-1 NL4-3) in CEM-SS / MT-2 cells; assay: Cytopathic effect (CPE) inhibition assay (XTT/MTT dye reduction); type: cell-based
Procedure: T-cell lines, CEM-SS, and MT-2, and viruses HIV-1 RF and HIV-1 NL4-3 (pNL4-3) were obtained from the National Institutes of Health (AIDS Research and Reference Reagent Program, Bethesda, Md.).
Cytopathic Effect (CPE) Inhibition Assays
The ability of compounds to protect cells against HIV infection was measured by the […] dye reduction method, essentially as described (See Pauwels, R. Balzarini, J. Baba, M. Snoeck, R. Schols, D. Herdewijn, P. Desmyter, J. and De Clercq, E. 1988, “Rapid and automated tetrazolium-based colorimetric assay for the detection of anti-HIV compounds,”. J Virol. Methods., 20: 309–321 and Weislow, O. S. Kiser, R. Fine, D. L. Bader, J. Shoemaker, R. H. and Boyd, M. R. 1989. “New soluble-formazan assay for HIV-1 cytopathic effects: application to high-flux screening of synthetic and natural products for AIDS-antiviral activity”. J. Natl. Cancer Inst. 81:577–586). Subject cells were infected with test virus at an moi of 0.025 to 0.819 or mock infected with medium only and added at 2×10^4 cells per well into 96 well plates containing half-log dilutions of test compounds. Six days later, 50 μl of XTT (1 mg/ml XTT tetrazolium, 0.02 nM phenazine methosulfate) was added to the wells and the plate was reincubated for four hours. Viability, as determined by the amount of XTT formazan produced, was quantified spectrophotometrically by absorbance at 450 nm. Data from CPE assays were expressed as the percent of formazan produced in compound-treated cells compared to formazan produced in wells of uninfected, compound-free cells. The fifty percent effective concentration (EC50) was calculated as the concentration of compound that effected an increase in the percentage of formazan production in infected, compound-treated cells to 50% of that produced by uninfected, compound-free cells. The 50% cytotoxicity concentration (CC50) was calculated as the concentration of compound that decreased the percentage of formazan produced in uninfected, compound-treated cells to 50% of that produced in uninfected, compound-free cells. The therapeutic index was calculated by dividing the cytotoxicity (CC50) by the antiviral activity (EC50).

[2] = molecular target: T1, HIV-1 protease (Q7S mutant form) (Human immunodeficiency virus type 1 group M subtype B, UniProt P04585, Q495S); assay: HIV-1 Protease RET assay; type: biochemical
T1 construct: made in house
Procedure, shortened: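 Q7S HIV-1 protease, refolded from urea, 2 nM active dimer with 5 μM EDANS/DABCYL peptide cleaved at Tyr-Pro; fluorescence 340/490 nm. 12 min at 37 °C in 0.1M sodium acetate pH 4.8, 1M NaCl, 10% DMSO. Ki from Morrison tight-binding fit.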

[3] = Human immunodeficiency virus 1, NL43, unit inferred, read-out: EC50
[4] = Ave. Ki (nM), RET assay, Q7S enzyme, Morrison tight binding fit
[5] = Human immunodeficiency virus 1, NL43, read-out: Ave CPE EC50

EC50 [1, 3]: ≥ 10000 nM
SMILES: Cc1ccccc1CNC(=O)[C@@H]1C(C(=O)[C@@H](O)[C@H](Cc2ccccc2)NC(=O)c2cccc(O)c2C)[C@@H]2CC[C@@H]1C2 (stereo partly shown)

EC50 [1, 3]: ≥ 10000 nM
SMILES: Cc1ccccc1CNC(=O)[C@H]1C(C(=O)[C@@H](O)[C@H](Cc2ccccc2)NC(=O)c2cccc(O)c2C)[C@@H]2CC[C@@H]1C2 (stereo partly shown)

SMILES: Cc1ccccc1CNC(=O)[C@H]1N(C(=O)[C@@H](O)[C@H](Cc2ccccc2)NC(=O)[C@@H](NC(=O)c2ccccn2)C(C)C)CSC1(C)C
EC50 [1, 3]: 126 nM | Ki ([2]; Ki, unit inferred): ≤ 0.1 nM

SMILES: Cc1cccc(C)c1OCC(=O)N[C@@H](Cc1ccccc1)[C@H](O)C(=O)N1CSC(C)(C)[C@H]1C(=O)NCc1ccccc1C(F)(F)F
EC50 [1, 3]: 1950 nM | Ki ([2]; Ki, unit inferred): 1.4 nM

SMILES: CC1(C)SCN(C(=O)[C@@H](O)[C@H](Cc2ccccc2)NC(=O)c2cccc3c2CCN3)[C@@H]1C(=O)N[C@@H]1CCOc2ccccc21
EC50 [1, 3]: 1960 nM | Ki ([2]; Ki, unit inferred): 7.4 nM

SMILES: Cc1ccccc1CNC(=O)[C@H]1N(C(=O)[C@@H](O)[C@H](Cc2ccccc2)NC(=O)C(F)(F)F)CSC1(C)C
EC50 [1, 3]: 2200 nM | Ki ([2]; Ki, unit inferred): 17.1 nM

SMILES: Cc1ccccc1CNC(=O)[C@H]1N(C(=O)[C@@H](O)[C@H](Cc2ccccc2)NC(=O)OC2CC3CCC2C3)CSC1(C)C (stereo partly shown)
EC50 [1, 3]: 2880 nM | Ki ([2]; Ki, unit inferred): 9.4 nM

SMILES: CC1(C)SCN(C(=O)[C@@H](O)[C@H](Cc2ccccc2)NC(=O)CSc2nc[nH]n2)[C@@H]1C(=O)NCC#N
EC50 [1, 3]: ≥ 3200 nM | Ki ([2]; Ki, unit inferred): 28 nM

SMILES: Cc1ccccc1CNC(=O)C1N(C(=O)[C@@H](O)[C@H](Cc2ccccc2)NC(=O)CSc2nc3ccccc3[nH]2)CSC1(C)C (stereo partly shown)
EC50 [1, 3]: ≥ 3200 nM | Ki ([2]; Ki, unit inferred): 17.4 nM

SMILES: Cc1ccccc1CNC(=O)C1N(C(=O)[C@@H](O)[C@H](Cc2ccccc2)NC(=O)CSc2nncn2C)CSC1(C)C (stereo partly shown)
EC50 [1, 3]: ≥ 3200 nM | Ki ([2]; Ki, unit inferred): 82 nM

SMILES: Cc1ccccc1CNC(=O)[C@H]1N(C(=O)[C@@H](O)[C@H](Cc2ccccc2)NC(=O)COc2cccc3ccccc23)CSC1(C)C
EC50 [1, 3]: ≥ 3200 nM | Ki ([2]; Ki, unit inferred): 5.8 nM

SMILES: Cc1ccccc1CNC(=O)[C@H]1N(C(=O)[C@@H](O)[C@H](Cc2ccccc2)NC(=O)COc2cccc(N3CCOCC3)c2)CSC1(C)C
EC50 [1, 3]: ≥ 3200 nM | Ki ([2]; Ki, unit inferred): 4.4 nM

SMILES: Cc1ccccc1CNC(=O)[C@@H]1C2CCC(CC2)N1C(=O)[C@@H](O)[C@H](Cc1ccccc1)NC(=O)c1cccc(O)c1C
EC50 [1, 3]: ≥ 3200 nM | Ki ([2]; Ki, unit inferred): 9.8 nM

SMILES: CCCNC(=O)[C@H]1N(C(=O)[C@@H](O)[C@H](Cc2ccccc2)NC(=O)OCCC)CSC1(C)C
EC50 [1, 3]: ≥ 3200 nM | Ki ([2]; Ki, unit inferred): 12.7 nM

SMILES: CCCC(C)C(=O)NC(Cc1ccccc1)[C@H](O)C(=O)N1CSC(C)(C)C1C(=O)NCc1ccccc1C (stereo partly shown)
EC50 [1, 3]: ≥ 3200 nM | Ki ([2]; Ki, unit inferred): 12.6 nM

SMILES: CCC(=O)NC(Cc1ccccc1)[C@H](O)C(=O)N1CSC(C)(C)C1C(=O)NCc1ccccc1C (stereo partly shown)
EC50 [1, 3]: ≥ 3200 nM | Ki ([2]; Ki, unit inferred): 8.4 nM

SMILES: C=CC(C)COC(=O)NC(Cc1ccccc1)[C@H](O)C(=O)N1CSC(C)(C)C1C(=O)NCc1ccccc1C (stereo partly shown)
EC50 [1, 3]: ≥ 3200 nM | Ki ([2]; Ki, unit inferred): 15.1 nM

SMILES: Cc1ccccc1CNC(=O)[C@@H]1CC(F)(F)CN1C(=O)[C@@H](O)[C@H](Cc1ccccc1)NC(=O)C1C(C)C(=O)ON1C (stereo partly shown)
EC50 [1, 3]: ≥ 3200 nM | Ki ([2]; Ki, unit inferred): 3.6 nM

SMILES: Cc1ccccc1CNC(=O)[C@H]1C2CCC(C2)N1C(=O)[C@@H](O)[C@H](Cc1ccccc1)NC(=O)c1cccc(O)c1C (stereo partly shown)
EC50 [1, 3]: 4000 nM | Ki ([2]; Ki, unit inferred): 18.4 nM

SMILES: Cc1ccccc1CNC(=O)[C@H]1N(C(=O)[C@@H](O)[C@H](Cc2ccccc2)NC(=O)OCc2ccccc2)CSC1(C)C
EC50 [1, 3]: 4220 nM | Ki ([2]; Ki, unit inferred): 1.4 nM

SMILES: Cc1ccccc1CNC(=O)[C@@H]1CCCCN1C(=O)[C@@H](O)[C@H](Cc1ccccc1)NC(=O)c1cccc(O)c1C
EC50 [1, 3]: 5870 nM | Ki ([2]; Ki, unit inferred): 51.7 nM

SMILES: COc1cc2c(cc1OC)CN(C(=O)[C@H]1N(C(=O)[C@@H](O)[C@H](Cc3ccccc3)NC(=O)c3cccc(O)c3C)CSC1(C)C)CC2
EC50 [1, 3]: ≥ 10000 nM | Ki ([2]; Ki, unit inferred): 46 nM

SMILES: COc1cccc(CNC(=O)N[C@@H](Cc2ccccc2)[C@H](O)C(=O)N2CSC(C)(C)[C@H]2C(=O)NCc2ccccc2C)c1 [Example B76, (R)-3-{(2S,3S)-2-Hydroxy-3-[3-(3-methoxy-benzyl)-ureido]-4-phenyl-butyryl}-5,5-dimethyl-thiazolidine-4-carboxylic acid 2-methyl-benzylamide]
Ki [2, 4]: 11.2 nM

SMILES: CC(C)=CCNC(=O)[C@@H]1CC(F)(F)CN1C(=O)[C@@H](O)[C@H](Cc1ccccc1)NC(=O)c1cccc(O)c1C [Example C9, (S)-4,4-Difluoro-1-((2S,3S)-2-hydroxy-3-{[1-(3-hydroxy-2-methyl-phenyl)-methanoyl]-amino}-4-phenyl-butanoyl)-pyrrolidine-2-carboxylic acid (3-methyl-but-2-enyl)-amide]
Ki [2, 4]: 6.3 nM

SMILES: Cc1c(O)cccc1C(=O)N[C@@H](Cc1ccccc1)[C@H](O)C(=O)N1CC(F)(F)C[C@H]1C(=O)NCc1c(F)cccc1Cl [Example C14, (S)-4,4-Difluoro-1-[(2S,3S)-2-hydroxy-3-(3-hydroxy-2-methyl-benzoylamino)-4-phenyl-butyryl]-pyrrolidine-2-carboxylic acid 2-chloro-6-fluoro-benzylamide]
Ki [2, 4]: 2.5 nM

SMILES: Cc1c(O)cccc1C(=O)N[C@@H](Cc1ccccc1)[C@H](O)C(=O)N1CO[C@@H](C)[C@H]1C(=O)N[C@@H]1C=CCCC1 [Example C28, (4S,5S)-3-((2S,3S)-2-Hydroxy-3-{[1-(3-hydroxy-2-methyl-phenyl)-methanoyl]-amino}-4phenyl-butanoyl)-5-methyl-oxazoldine-4-carboxylic acid (S)-cyclohex-2-enylamide]
Ki [2, 4]: 8.4 nM

SMILES: Cc1ccccc1CNC(=O)[C@@H]1CC(F)(F)CN1C(=O)[C@@H](O)[C@H](Cc1ccccc1)NC(=O)c1c(C)noc1C [Example C43, 3,5-Dimethyl-isoxazole-4-carboxylic acid {1-benzyl-3-[4,4-difluoro-2-(2-methyl-benzylcarbamoyl)-pyrrolidin-1-yl]-2-hydroxy-3-oxo-propyl}-amide]
Ki [2, 4]: 21 nM

SMILES: C#CCOC(=O)N[C@@H](Cc1ccccc1)[C@H](O)C(=O)N1CC(F)(F)C[C@H]1C(=O)NCc1ccccc1C [Example C44, {1-Benzyl-3-[4,4-difluoro-2-(2-methyl-benzylcarbamoyl)-pyrrolidin-1-yl]-2-hydroxy-3-oxo-propyl}-carbamic acid prop-2-ynyl ester]
Ki [2, 4]: 14.8 nM

SMILES: Cc1ccccc1CNC(=O)[C@@H]1C[C@@H]2CCCC[C@@H]2CN1C(=O)[C@@H](O)[C@H](Cc1ccccc1)NC(=O)c1cccc(O)c1C [Example C49, (3S,4aS,8aS)-2-((2S,3S)-2-Hydroxy-3-{[1-(3-hydroxy-2-methyl-phenyl)-methanoyl]-amino}-4-phenyl-butanoyl)-decahydro-isoquinoline-3-carboxylic acid 2-methyl-benzylamide]
Ki [2, 4]: 150 nM

EC50 [1, 5]: 16 nM
SMILES: C=CCNC(=O)C1N(C(=O)[C@@H](O)[C@H](Cc2cccc(F)c2)NC(=O)c2cccc(O)c2C)CC(F)(F)C1(C)C (stereo partly drawn) [Example D2, (R)-3-((2S,3R)-4,4-Difluoro-1-[4(3-fluoro-phenyl)-2-hydroxy-3-(3-hydroxy-2-methyl-benzoylamino)-butyryl])-3,3-dimethyl-pyrrolidine-2-carboxylic acid allyiamide]

EC50 [1, 5]: 13 nM
SMILES: Cc1c(O)cccc1C(=O)N[C@@H](Cc1cccc(F)c1)[C@H](O)C(=O)N1CC(F)(F)C(C)(C)[C@H]1C(=O)NCC(C)C [Example D3, (S)-4,4-Difluoro-1-[(2S,3S)-4-(3-fluoro-phenyl)-2-hydroxy-3-(3-hydroxy-2-methyl-benzoylamino)-butyryl]-3,3-dimethyl-pyrrolidine-2-carboxylic acid is butyl-amide]

EC50 [1, 5]: 18 nM
SMILES: Cc1cc(O)c(C)c(C(=O)N[C@@H](Cc2ccccc2)[C@H](O)C(=O)N2CC(F)(F)C(C)(C)[C@H]2C(=O)NCC(F)(F)F)c1 [Example D6, (S)-4,4-Difluoro-1-[(2S,3S)-2-hydroxy-3-(3-hydroxy-2,5-dimethyl-benzoylamino)-4-phenyl-butyryl]-3,3-dimethyl-pyrrolidine-2-carboxylic acid (2,2,2-trifluoro-ethyl)-amide]

SMILES: CC1(C)SCN(C(=O)[C@@H](O)[C@H](Cc2ccccc2)NC(=O)NCc2ccccc2Cl)C1C(=O)NCc1ccccc1Cl (stereo partly shown) [drawing 953]
Ki ([2]; Ki, unit inferred): 74 nM

SMILES: Cc1ccccc1CNC(=O)[C@H]1N(C(=O)[C@@H](O)[C@H](Cc2ccccc2)NC(=O)CCNC(=O)OC(C)(C)C)CSC1(C)C [drawing 1035]
Ki ([2]; Ki, unit inferred): 94 nM

SMILES: Cc1ccccc1CNC(=O)[C@H]1N(C(=O)[C@@H](O)[C@H](Cc2ccccc2)NC(=O)CCNC(=O)OC(C)(C)C)CSC1(C)C [drawing 1038]
Ki ([2]; Ki, unit inferred): 48 nM

Reference: patent US7094909B2, “HIV protease inhibitors, compositions containing the same, their pharmaceutical uses and materials for their synthesis” (priority 2001, dated 2006)
